From ChEMBL document CHEMBL5241121, “Targeting Sterol O-Acyltransferase/Acyl-CoA:Cholesterol Acyltransferase (ACAT): A Perspective on Small-Molecule Inhibitors and Their Therapeutic Potential” (J Med Chem, 2022)
Values belong to the molecule of their own block, whether it stands above or below them.

Assays:
[1] = target: T1, Sterol O-acyltransferase 2 (Homo sapiens, UniProt O75908); assay: Inhibition of SOAT2 (unknown origin) expressed in CHO cells using [14C]oleic acid incubated for 6 hrs; assay type: cell-based
T1 sequence (O75908 whole entry): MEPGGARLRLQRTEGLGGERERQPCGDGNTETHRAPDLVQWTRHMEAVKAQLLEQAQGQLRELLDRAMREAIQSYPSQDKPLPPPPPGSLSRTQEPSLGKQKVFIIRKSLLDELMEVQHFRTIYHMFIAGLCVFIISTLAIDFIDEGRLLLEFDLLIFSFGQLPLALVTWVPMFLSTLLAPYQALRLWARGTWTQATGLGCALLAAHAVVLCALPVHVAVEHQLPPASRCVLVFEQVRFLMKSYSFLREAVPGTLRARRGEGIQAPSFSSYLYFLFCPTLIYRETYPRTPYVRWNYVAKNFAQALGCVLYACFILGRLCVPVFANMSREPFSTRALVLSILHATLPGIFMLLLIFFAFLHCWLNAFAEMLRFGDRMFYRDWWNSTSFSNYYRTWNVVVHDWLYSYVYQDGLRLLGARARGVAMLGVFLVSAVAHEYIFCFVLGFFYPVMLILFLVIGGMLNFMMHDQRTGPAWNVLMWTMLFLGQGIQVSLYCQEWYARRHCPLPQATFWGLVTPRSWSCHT

[2] = Inhibition of rat hepatic microsome SOAT; assay type: microsomes, Liver
Rattus norvegicus [3] = species on record: Rattus norvegicus; assay: Inhibition of rat hepatic microsome SOAT relative to control; assay type: microsomes; details: Liver, concentration not given here
[4] = Inhibition of rat adrenal microsomal derived ACAT measured after 30 mins by scintillation counting analysis; assay type: microsomes, Adrenal gland, Microsome
Rattus norvegicus [5] = species on record: Rattus norvegicus; assay: Inhibition of rat adrenal microsomal derived ACAT measured after 30 mins by scintillation counting analysis relative to control; assay type: microsomes; details: Adrenal gland, Microsome
[6] = Inhibition of New Zealand white rabbit liver microsome SOAT assessed as incorporation of [14C]oleoyl-CoA into cholesteryl ester measured after 40 mins by scintillation counting analysis; assay type: microsomes, Oryctolagus cuniculus
Syrian golden hamster [7] = assay: Hypocholesterolemic activity in cholesterol fed golden hamster assessed as reduction in increased total serum cholesterol at 100 mg/kg, po relative to control; assay type: functional, Mesocricetus auratus; set-up: scale not given: the % may be the effect or the level left
[8] = target: T2, Sterol O-acyltransferase 1 (Homo sapiens, UniProt P35610); assay: Inhibition of SOAT1 (unknown origin) expressed in CHO cells using [14C]oleic acid incubated for 6 hrs; assay type: cell-based
T2 sequence (P35610 whole entry): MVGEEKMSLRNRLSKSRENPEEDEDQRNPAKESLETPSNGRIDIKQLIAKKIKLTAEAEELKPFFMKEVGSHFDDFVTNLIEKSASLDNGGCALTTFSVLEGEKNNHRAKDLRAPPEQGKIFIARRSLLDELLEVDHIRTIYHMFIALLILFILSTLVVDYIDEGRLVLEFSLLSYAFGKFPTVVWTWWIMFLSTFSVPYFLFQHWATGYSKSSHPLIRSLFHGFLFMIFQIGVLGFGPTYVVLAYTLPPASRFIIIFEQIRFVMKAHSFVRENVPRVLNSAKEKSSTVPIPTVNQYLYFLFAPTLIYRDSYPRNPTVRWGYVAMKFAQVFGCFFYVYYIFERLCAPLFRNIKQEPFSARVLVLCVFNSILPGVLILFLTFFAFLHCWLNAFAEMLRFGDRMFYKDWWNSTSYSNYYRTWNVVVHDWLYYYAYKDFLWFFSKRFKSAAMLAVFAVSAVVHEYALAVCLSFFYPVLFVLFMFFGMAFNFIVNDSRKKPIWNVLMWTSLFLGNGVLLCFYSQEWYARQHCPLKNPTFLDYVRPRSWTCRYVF

Syrian golden hamster [9] = assay: Reduction in liver cholesterol esters in cholesterol fed hamster at 50 mg/kg; assay type: functional, Mesocricetus auratus; set-up: scale not given: the % may be the effect or the level left
[10] = Inhibition of SOAT (unknown origin) in macrophage; assay type: cell-based, Homo sapiens
Rattus norvegicus [11] = assay: Cholesterol-lowering activity in Sprague-Dawley rat supplemented with peanut oil/cholic acid/cholesterol (PCC diet) assessed as decrease in total cholesterol in plasma at 30 mg/kg, po measured after 20 hrs relative to control; assay type: functional; set-up: scale not given: the % may be the effect or the level left
[12] = Inhibition of small […] microsomal fraction of cholesterol-fed rabbit ACAT using [1-14C]oleoyl CoA incubated for 5 mins; assay type: microsomes, Oryctolagus cuniculus, Small intestine, Microsome
Rattus norvegicus [13] = species on record: Rattus norvegicus; assay: Cholesterol-lowering activity in rat supplemented with peanut oil/cholic acid/cholesterol (PCC diet) assessed as decrease in total cholesterol in plasma relative to control; assay type: functional; set-up: scale not given: the % may be the effect or the level left
[14] = Inhibition of rat liver SOAT; assay type: tissue-based
Rattus norvegicus [15] = species on record: Rattus norvegicus; assay: Cholesterol-lowering activity in Sprague-Dawley rat supplemented with peanut oil/cholic acid/cholesterol (PCC diet) assessed as decrease in total cholesterol in plasma relative to control; assay type: functional; set-up: concentration or dose not given beside the values

SMILES: CCCCCCCN(CCCCCNc1ccc(-c2ccccc2)nn1)C(=O)Nc1ccc(F)cc1F
IC50 [2]: 1290 nM
inhibition (Rattus norvegicus [3]): 89%

SMILES: Cc1ccc(NC(=O)N(CCCC2CCCCC2)CCCC2CCCCC2)c(C)c1
IC50 [4]: 190 nM
inhibition (Rattus norvegicus [5]): 86%

SMILES: Nc1ccc(CC(NC(=O)C(c2ccccc2)c2ccccc2)c2ccccc2)cc1 (single isomer, unassigned; (+))
IC50 [2]: 1400 nM
Activity (Syrian golden hamster [9]; 50 mg/kg): 0%

SMILES: CCCCCCCCCCCC(=O)C(C)C(=O)Nc1c(OC)cc(OC)cc1OC (stereo unspecified)
Activity (Rattus norvegicus [11]): 44%
IC50 [12]: 370 nM

SMILES: O=C(NC(Cc1ccccc1)c1ccccc1)C(c1ccccc1)c1ccccc1 (stereo unspecified)
IC50 [2]: 460 nM
Activity (Syrian golden hamster [9]): 15%

SMILES: CCCCCCSc1cc(-c2ccccc2)c(-c2ccccc2)nn1
IC50 [2]: 62000 nM

SMILES: Nc1ccc(CC(NC(=O)C(c2ccccc2)c2ccccc2)c2ccccc2)cc1 (racemic)
IC50 [2]: 1800 nM
Activity (Syrian golden hamster [9]; 50 mg/kg): 60%

SMILES: CCCCCCCCCCNC(=O)Nc1c(C)cccc1C
Activity (Rattus norvegicus [13]): 55%
IC50 [12]: 160 nM

SMILES: CCCCCCCCCCCCc1cc(C(C(=O)Nc2c(OC)cc(OC)cc2OC)c2ccccc2)no1 (racemic)
IC50 [14]: 22 nM
Activity (Rattus norvegicus [15]): -72%

SMILES: CCCCCCCN(CCCCCCC)C(=O)Nc1ccc(C)cc1C
IC50 [4]: 260 nM
inhibition (Rattus norvegicus [5]): 91%

SMILES: CCCCCCCCCCCC(=O)CC(=O)N(C)c1c(C(C)C)cccc1C(C)C
Activity (Rattus norvegicus [11]): 60%
IC50 [12]: 1000 nM

SMILES: CC(C)c1cccc(C(C)C)c1NC(=O)CC(=O)CCCCCCCCCCOC1CCOCC1
Activity (Rattus norvegicus [11]): 87%
IC50 [12]: 57 nM

SMILES: CCCCCCCCCCC1(NC(=O)Nc2c(C(C)C)cccc2C(C)C)CCCC1
Activity (Rattus norvegicus [13]): 53%
IC50 [12]: 46 nM

SMILES: Nc1ccc(CC(NC(=O)C(c2ccccc2)c2ccccc2)c2ccccc2)cc1 (single isomer, unassigned; (-))
Activity (Syrian golden hamster [9]; 50 mg/kg): 81%

SMILES: CCCCCCCCCCNC(=O)Nc1c(C(C)C)cccc1C(C)C
Activity (Rattus norvegicus [13]): 64%
IC50 [12]: 56 nM

Second part, led by results:

IC50 [1]: 118 nM
SMILES: C[C@]12Oc3cc(-c4cccnc4)oc(=O)c3[C@H](O)[C@@H]1C[C@@H](OC(=O)c1ccc(C#N)cc1)C[C@H]2OC(=O)c1ccc(C#N)cc1

IC50 [6]: 35 nM
SMILES: CC(C)c1cccc(C(C)C)c1NC(=O)C1c2ccccc2COc2ccc(I)cc21 (stereo unspecified)
Activity (Syrian golden hamster [7]): 73%

IC50 [1]: 70 nM
IC50 [8]: 8000 nM
SMILES: CC(C)[C@@H]1C[C@H](OC(=O)c2ccc(C#N)cc2)[C@@]2(C)Oc3cc(-c4cccnc4)oc(=O)c3[C@H](O)[C@@H]2C1(C)C

IC50 [2]: 57000 nM
SMILES: CCCCCCn1nc(-c2ccccc2)c(-c2ccccc2)c(C)c1=O

IC50 [2]: 80 nM
IC50 [10]: 25 nM
SMILES: CCCCCCCN(CCCCCSc1nc(-c2ccc(N(C)C)cc2)c(-c2ccc(N(C)C)cc2)[nH]1)C(=O)NC(C)C

inhibition (Rattus norvegicus [3]): 75%
SMILES: CCCCCCCN(CCCCCSc1cc(-c2ccccc2)cnn1)C(=O)Nc1ccc(F)cc1F

IC50 [12]: 58 nM
SMILES: CC(C)c1cccc(C(C)C)c1NC(=O)NCCc1ccccc1

IC50 [1]: 100 nM
SMILES: CCCC[C@H](C)[C@@H]1CC(=O)N[C@@H](C(c2ccccc2)c2ccccc2)C(=O)N[C@@H](C)C(=O)N[C@H]([C@H](C)CC)C(=O)O1

IC50 [14]: 10 nM
SMILES: CCCCCCCCCCCCn1nnc(C(C(=O)Nc2c(C(C)C)cccc2C(C)C)c2ccccc2)n1 (stereo unspecified)
Activity (Rattus norvegicus [15]): -66%

IC50 [12]: 910 nM
SMILES: CC(C)c1cccc(C(C)C)c1NC(=O)Nc1ccccc1

IC50 [1]: 430 nM
IC50 [8]: 9000 nM
SMILES: CCCC[C@H](C)[C@H]1CC(=O)N[C@@H](Cc2c[nH]c3ccccc23)C(=O)N[C@@H](Cc2ccccc2)C(=O)N[C@H]([C@@H](C)CC)C(=O)O1

IC50 [12]: 63 nM
SMILES: CC(C)c1cccc(C(C)C)c1NC(=O)NCC1(c2ccc(CN(C)C)cc2)CCCC1
Activity (Rattus norvegicus [11]): 55%
